Bounds are passed on as bounds.

The subject of assay [1] is CD8-MerTK in Ba/F3-CDM cells. The assay is described as follows: In cell MER kinase assay, Ba/F3-CDM cell proliferation without IL-3 (Celltiter-Glo). Type of assay: cell-based, murine. The settings on record: 48 hours compound treatment, read-out: Cell growth inhibition (GI50). How it is done: To establish an in cell kinase assay for MerTK kinase, the IL-3 dependent Ba/F3 cells of murine lymphoid origin was transfected with CD8-MerTK. […] For a routine cellular assay, Ba/F3-CDM cells were seeded at 2,000 cells per well in 384-well cell culture plate containing DMEM/10% FBS culture media and incubated for 24 hours before addition of compounds pre-diluted in culture media. Following compound treatment, cells were further incubated for 48 hours and the proliferation was measured. To discriminate a Ba/F3 growth inhibition by a specific inhibition of MerTK kinase following compound treatment vs growth inhibition due to a non-specific unintended cytotoxicity of compounds, we routinely carried out control sets of Ba/F3 cells in parallel that grown in IL3-supplemented growth media. In the presence of IL-3, the proliferation of Ba/F3 is no longer dependent on the MerTK activity. Cell growth and proliferation was measured with Celltiter-Glo™ system (Promega, USA) according to the manufacturer's instruction. The half-maximal growth inhibitory concentration (GI50) value was calculated with Prism6.0 software (GraphPad, USA).

For assay [2], the target named is human c-MER catalytic domain (Homo sapiens (Human), UniProt Q12866). The assay is described as follows: LanthaScreen TR-FRET kinase assay, c-MER. The settings on record: read-out: Mer TK inhibition (IC50); Biochemical IC50, TR-FRET, 10 uM ATP. Background: Time-resolved FRET reads energy transfer from a long-lived donor to a nearby acceptor.
Sequence of human c-MER catalytic domain (Q12866 587-858): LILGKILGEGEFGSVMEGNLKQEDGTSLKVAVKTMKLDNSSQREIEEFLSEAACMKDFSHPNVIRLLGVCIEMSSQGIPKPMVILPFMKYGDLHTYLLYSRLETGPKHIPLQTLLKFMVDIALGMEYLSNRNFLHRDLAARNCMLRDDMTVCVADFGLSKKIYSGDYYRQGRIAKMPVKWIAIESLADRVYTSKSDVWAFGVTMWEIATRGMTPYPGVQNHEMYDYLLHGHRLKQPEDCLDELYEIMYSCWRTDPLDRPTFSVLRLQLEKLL

By GI50 is commonly meant the concentration that inhibits growth by half. What is called IC50 is the midpoint of a concentration-inhibition curve. For `C[C@@H]1CN(C)CCN1Cc1ccc(-c2ccc(CO[C@H]3CCC[C@@H]3NC(=O)c3cc(-c4cnn(C)c4)cnc3N)cc2)cc1` [Example 187, 2-amino-N-((1S,2S)-2-((4′-(((R)-2,4-dimethylpiperazin-1-yl)-methyl)-[1,1′-biphenyl]-4-yl)methoxy)cyclopentyl)-5-(1-methyl-1H-pyrazol-4-yl)-nicotinamide], the concentration for 50% growth inhibition (GI50) in assay [1] is less than 0.1 µM. In addition, in assay [2], the IC50 was less than 0.01 µM.
In the case of `CCc1cc(CO[C@H]2CNC[C@@H]2NC(=O)c2cc(-c3ccc(CC#N)cc3)cnc2N)ccc1C` [Example 411, 2-amino-5-(4-(cyanomethyl)phenyl)-N-((3S,4S)-4-((3-ethyl-4-methylbenzyl)oxy)pyrrolidin-3-yl)nicotinamide], in assay [1], the GI50 is 0.1 to 0.5 µM. Besides, in assay [2], the half-maximal inhibitory concentration (IC50) was less than 0.01 µM.
The like results for `CN1CCN(Cc2ccc(-c3ccc(CO[C@H]4CCC[C@@H]4NC(=O)c4cc(-c5cnn(C)c5)cnc4N)cc3)cc2[N+](=O)[O-])CC1` [Example 200, 2-amino-5-(1-methyl-1H-pyrazol-4-yl)-N-((1S,2S)-2-((4′-((4-methylpiperazin-1-yl)methyl)-3′-nitro-[1,1′-biphenyl]-4-yl)methoxy)-cyclopentyl)nicotinamide] were, in that order, 0.1 to 0.5 µM and less than 0.01 µM.
The like results for `CN1CCN(Cc2ccc(-c3ccc(CO[C@H]4CCC[C@@H]4NC(=O)c4cc(-c5cccnc5)cnc4N)cc3)cc2)CC1` [Example 375, 6-amino-N-((1S,2S)-2-((4′-((4-methylpiperazin-1-yl)methyl)-[1,1′-biphenyl]-4-yl)methoxy)cyclopentyl)-[3,3′-bipyridine]-5-carboxamide] were, in that order, less than 0.1 µM and less than 0.01 µM.
Consider `C[C@H](c1ccc(-c2ccc(CO[C@H]3CCC[C@@H]3NC(=O)c3cc(-c4cnn(C)c4)cnc3N)cc2)cc1)N1CCNCC1` [Example 213, 2-amino-5-(1-methyl-1H-pyrazol-4-yl)-N-((1S,2S)-2-((4′-((R)-1-(piperazin-1-yl)ethyl)-[1,1′-biphenyl]-4-yl)methoxy)cyclopentyl)nicotinamide], for which, in assay [1], the GI50 fell in the range of 0.1 to 0.5 µM. Also, in assay [2], the 50% inhibitory concentration (IC50) was less than 0.01 µM.
For `CCc1cc(CO[C@H]2CCC[C@@H]2NC(=O)c2cc(-c3cnn(C)c3)cnc2N)ccc1C` [Example 21, 2-amino-N-((1S,2S)-2-((3-ethyl-4-methylbenzyl)oxy)cyclopentyl)-5-(1-methyl-1H-pyrazol-4-yl)nicotinamide] the same measures were greater than 1 µM and less than 0.01 µM.
The like results for `Cn1cc(-c2cnc(N)c(C(=O)N[C@H]3CNC[C@@H]3OCc3ccc(-c4ccc(CN5CCN(CCO)CC5)cc4)cc3)c2)cn1` [Example 446, 2-amino-N-((3S,4S)-4-((4′-((4-(2-hydroxyethyl)piperazin-1-yl)-methyl)-[1,1′-biphenyl]-4-yl)methoxy)pyrrolidin-3-yl)-5-(1-methyl-1H-pyrazol-4-yl)-nicotinamide] were, in that order, greater than 1 µM and less than 0.01 µM.
For `Cn1cc(-c2cnc(N)c(C(=O)N[C@H]3CCC[C@@H]3OCc3ccc(-c4ccc(CC5CCN(CC(N)=O)CC5)cc4)cc3)c2)cn1` [Example 242, 2-amino-N-((1S,2S)-2-((4′-((1-(2-amino-2-oxoethyl)piperidin-4-yl)methyl)-[1,1′-biphenyl]-4-yl)methoxy)cyclopentyl)-5-(1-methyl-1H-pyrazol-4-yl)-nicotinamide], in assay [1], the concentration for 50% growth inhibition (GI50) was less than 0.1 µM. For the same molecule, the 50% inhibitory concentration (IC50) in assay [2] is less than 0.01 µM.
Take `Cc1cnc(N)c(C(=O)N[C@H]2CCC[C@@H]2OCc2ccc(-c3ccc(CN4CCN(C)CC4)cc3)cc2)c1` [Example 374, 2-amino-5-methyl-N-((1S,2S)-2-((4′-((4-methylpiperazin-1-yl)-methyl)-[1,1′-biphenyl]-4-yl)methoxy)cyclopentyl)nicotinamide]: the 50% growth inhibitory concentration (GI50) in assay [1] fell in the range of 0.1 to 0.5 µM. The IC50 in assay [2] was less than 0.01 µM.
Turning to `C[C@@H]1CN(Cc2ccc(-c3ccc(CO[C@H]4CCC[C@@H]4NC(=O)c4cc(-c5cnn(C)c5)cnc4N)cc3)cc2)C[C@H](C)N1C` [Example 190, 2-amino-5-(1-methyl-1H-pyrazol-4-yl)-N-((1S,2S)-2-((4′-((cis-3,4,5-trimethylpiperazin-1-yl)methyl)-[1,1′-biphenyl]-4-yl)methoxy)cyclopentyl)-nicotinamide], the concentration for 50% growth inhibition (GI50) in assay [1] is less than 0.1 µM. The half-inhibitory concentration (IC50) in assay [2] was less than 0.01 µM.
The like results for `Cn1cc(-c2cnc(N)c(C(=O)N[C@H]3CCC[C@@H]3OCc3ccc(-c4ccc(CN5CCN(CCO)CC5)cc4)cc3)c2)cn1` [Example 181, 2-amino-N-((1S,2S)-2-((4′-((4-(2-hydroxyethyl)piperazin-1-yl)-methyl)-[1,1′-biphenyl]-4-yl)methoxy)cyclopentyl)-5-(1-methyl-1H-pyrazol-4-yl)-nicotinamide] were, in that order, less than 0.1 µM and less than 0.01 µM.
The like results for `Cn1cc(-c2cnc(N)c(C(=O)N[C@H]3CCC[C@@H]3OCc3ccc(-c4ccc(CN5CCN(C6CC6)CC5)cc4)cc3)c2)cn1` [Example 184, 2-amino-N-((1S,2S)-2-((4′-((4-cyclopropylpiperazin-1-yl)methyl)-[1,1′-biphenyl]-4-yl)methoxy)cyclopentyl)-5-(1-methyl-1H-pyrazol-4-yl)nicotinamide] were, in that order, less than 0.1 µM and less than 0.01 µM.
The like results for `CN1CCC(Cc2ccc(-c3ccc(CO[C@H]4CCC[C@@H]4NC(=O)c4cc(-c5cnn(C)c5)cnc4N)cc3)cc2)CC1` [Example 239, 2-amino-5-(1-methyl-1H-pyrazol-4-yl)-N-((1S,2S)-2-((4′-((1-methylpiperidin-4-yl)methyl)-[1,1′-biphenyl]-4-yl)methoxy)cyclopentyl)nicotinamide] were, in that order, less than 0.1 µM and less than 0.01 µM.
For the molecule `C[C@@H]1CN(C)[C@@H](C)CN1Cc1ccc(-c2ccc(CO[C@H]3CCC[C@@H]3NC(=O)c3cc(-c4cnn(C)c4)cnc3N)cc2)cc1` [Example 192, 2-amino-5-(1-methyl-1H-pyrazol-4-yl)-N-((1S,2S)-2-((4′-(((2R,5S)-2,4,5-trimethylpiperazin-1-yl)methyl)-[1,1′-biphenyl]-4-yl)methoxy)cyclopentyl)nicotinamide], in assay [1], the GI50 was less than 0.1 µM. Also, the IC50 in assay [2] was less than 0.01 µM.
In the case of `C[C@@H]1CN(Cc2ccc(-c3ccc(CO[C@H]4CCC[C@@H]4NC(=O)c4cc(-c5cnn(C)c5)cnc4N)cc3)cc2)C[C@H](C)N1` [Example 189, 2-amino-N-((1S,2S)-2-((4′-((cis-3,5-dimethylpiperazin-1-yl)-methyl)-[1,1′-biphenyl]-4-yl)methoxy)cyclopentyl)-5-(1-methyl-1H-pyrazol-4-yl)-nicotinamide], the GI50 in assay [1] was in the range of 0.1 to 0.5 µM. Also, the half-maximal inhibitory concentration (IC50) in assay [2] is less than 0.01 µM.
For `CC(c1ccc(-c2ccc(CO[C@H]3CCC[C@@H]3NC(=O)c3cc(-c4cncc(F)c4)cnc3N)cc2)cc1)N1CCN(C)CC1` (stereo partly drawn) [Example 230, 6-amino-5′-fluoro-N-((1S,2S)-2-((4′-(1-(4-methylpiperazin-1-yl)ethyl)-[1,1′-biphenyl]-4-yl)methoxy)cyclopentyl)-[3,3′-bipyridine]-5-carboxamide] the same measures were less than 0.1 µM and less than 0.01 µM.
Turning to `Cn1cc(-c2cnc(N)c(C(=O)N[C@H]3CCC[C@@H]3OCc3ccc(-c4ccc(CCN)cc4)cc3)c2)cn1` [Example 145, 2-amino-N-((1S,2S)-2-((4′-(2-aminoethyl)-[1,1′-biphenyl]-4-yl)methoxy)cyclopentyl)-5-(1-methyl-1H-pyrazol-4-yl)nicotinamide], the GI50 in assay [1] is greater than 1 µM. In addition, in assay [2], the IC50 is less than 0.01 µM.

Values taken from patent US10125118B2, “Heteroaryl compounds and their use as therapeutic drugs” (Dong-A Socio Holdings Co., Ltd., priority 2015, dated 2018).
